# Results as given in patent publication US20250026725A1, “HYDRATE CRYSTAL OF 5-CHLORO-4-(3-CHLORO-4- METHYLPHENYL)-1H-IMIDAZOLE-2-CARBONITRILE” (ISHIHARA SANGYO KAISHA, LTD., priority 2021, published 2025).
# Tests used:
# [1] = Test of triboelectrification properties; format: physicochemical; settings: for Decrease of potential retention rate: at 20 minutes later
# Method: First, the sample was loaded into a levelled stainless steel petri dish having φ50 mm×a height of 15 mm, and then it was statically eliminated with a static eliminator (STABLO AP, manufactured by SHIMADZU CORPORATION). The surface potential of the sample was measured with a surface electrometer (SV-77A, manufactured by NIPPON STATIC CO., LTD.) that had previously been zero-point adjusted, to confirm that it was statically eliminated (within −1 to +1 kV). Next, the sample surface of the petri dish loaded with the sample was scraped back and forth 20 times with a stainless steel metal plate for 10 seconds to charge the sample surface. After that, the petri dish loaded with the charged sample was placed on a metal plate (30 cm×30 cm) connected with a ground wire. The surface potential of the sample was measured over time for 20 minutes with the above surface electrometer. The triboelectrification properties were evaluated from the initial surface potential. In addition, the retention rate was calculated from the surface potential after 20 minutes and the initial surface potential to evaluate charge attenuation properties. Note that the test was conducted in an electrostatic measurement chamber (Tabai ESPEC CORP.) set to 25° C. and 50% RH, and the surface potential measurement was conducted at a distance of 1 cm from the sample surface.
# [2] = Moisture absorption test; format: physicochemical; settings: 60° C./80% RH, paper bag
# Method: An anhydrous crystal sample was placed in a container (glass weighing bottle or paper bag) in such a manner that it was in direct contact with the damp. […] In addition, a sample for the hydrate crystal (Production Example 1) was also preserved at 60° C./80% RH, and the change in moisture content was observed through the change in weight or Karl Fischer moisture measurement.
# [3] = Karl Fischer moisture content measurement (volumetric titration method); format: physicochemical; settings: atmosphere of 25° C., as obtained
# Method: The moisture content rates of the hydrate crystals obtained in Production Examples 1 and 2, and the anhydrous crystals used as a raw material in Production Example 1 were measured with a Karl Fischer moisture meter (CA-310, manufactured by Nittoseiko Analytech Co., Ltd.). The test was conducted in conformance with the description in The Japanese Pharmacopoeia, 18th Edition, “2.48 Water Determination (Karl Fischer Method)”, Volumetric titration. The measurement was performed in an atmosphere of 25° C., with the conditions set to a forced delay time of 2 minutes after sample administration, a minimum amount to be titrated of 2 μL, and an end point voltage of 140 mV. More specifically, it was as follows. First, into a measuring flask, methanol for moisture measurement (Aquamicron Dehydrated Solvent GEX, manufactured by Mitsubishi Chemical Corporation) was loaded, and 30 mg of water was added thereto to titrate the mixture with a Karl Fischer reagent (Aquamicron SS-Z, manufactured by Mitsubishi Chemical Corporation). After titration, a titer (mg/mL) of the reagent was determined from the amount titrated. Next, about 0.1 g of a measurement sample was precisely weighed and added into the measuring flask to titrate the mixture with a Karl Fischer reagent. The moisture content (w/w %) in the sample was calculated from the amount titrated and the previously determined titer.
# [4] = Drying test; format: physicochemical; settings: 25° C., dried (silica gel), weighing bottle
# Method: The hydrate crystal of Production Example 1 was stored at 25° C. under a dried condition (in the presence of silica gel) for a period shown in Table 2. The Karl Fischer moisture content after storage was measured, and the change in moisture content was observed.
# [5] = test system: Trichophyton rubrum (ATCCMYA4607); experiment: Antifungal activity test, minimum inhibitory concentration (MIC100); format: cell-based; settings: Table 21, same method as Test Example 12, read-out: Minimal fungicidal concentration (MFC100)
# Method: Trichophyton rubrum was cultured on a Sabouraud medium at 32° C. for 168 hours to form spores. Mycelia were peeled from a medium surface and collected into a tube, physiological saline solution (OTSUKA NORMAL SALINE; containing the equivalent of 9 g of sodium chloride in 1000 mL) was added thereto, and the entire mixture was mixed and dispersed with a disposable loop (Type 1 (1 μL)) to collect a spore suspension containing mycelia. The spore suspension containing mycelia was filtered through a cell strainer (+40 μm). Spores were collected from a filtrate by centrifugation (3500 rpm, 5 minutes), and washed twice with physiological saline to prepare a spore suspension (1×10^6 cells/mL). 10 μL of the spore suspension was inoculated into the Sabouraud medium to which the test compound dissolved in DMSO was added so as to have a predetermined concentration. Trichophyton rubrum was cultured at 32° C. for 72 hours, and then the presence or absence of the development of colonies was examined to determine a minimum inhibitory concentration (MIC100).
# A minimum inhibitory concentration (MIC100) for Trichophyton rubrum (ATCCMYA4607) was determined in the same method as in Test Example 12 except that the hydrate crystal (Production Example 2) was used as the compound under test.
smiles,measurement,setting,value
"Cc1ccc(-c2nc(C#N)[nH]c2Cl)cc1Cl [Hydrate crystal (Production Example 1), 5-chloro-4-(3-chloro-4-methylphenyl)-1H-imidazole-2-carbonitrile]",Electrification voltage,"[1]; 0 minutes after charging, 25° C. and 50% RH",−3.00 kv
same,Electrification voltage,"[1]; 20 minutes after charging, 25° C. and 50% RH",−2.79 kv
same,Decrease of potential retention rate,"[1]; 25° C. and 50% RH, listed as hydrate crystal of Production Example 1",7%
same,Retention rate,"[1]; surface potential after 20 minutes vs initial, 25° C. and 50% RH",93.0%
same,Moisture content,[2]; 0 days,0.1%
same,Weight change,[2]; 4 days,6.4%
same,Weight change,[2]; 7 days,6.4%
same,Weight change,[2]; 14 days,6.5%
same,Moisture content,[2]; 20 days,6.7%
same,Weight change,[2]; 20 days,6.5%
same,Weight change,[2]; 29 days,6.5%
same,Weight change,[2]; 40 days,6.5%
same,Moisture content,[2]; 61 days,6.6%
same,Weight change,[2]; 61 days,6.5%
same,Karl Fischer moisture content,[3]; listed as hydrate crystal of Production Example 1,6.6 wt %
same,Karl Fischer moisture content,[4]; 0 days,6.5%
same,Karl Fischer moisture content,[4]; 14 days,6.7%
same,Karl Fischer moisture content,[4]; 29 days,6.7%
same,Karl Fischer moisture content,[4]; 38 days,6.7%
same,Karl Fischer moisture content,[4]; 53 days,6.7%
"Cc1ccc(-c2nc(C#N)[nH]c2Cl)cc1Cl [Hydrate crystal (Production Example 2), 5-chloro-4-(3-chloro-4-methylphenyl)-1H-imidazole-2-carbonitrile]",MFC,[5],5 µg/mL
same,Electrification voltage,[1]; 0 minutes after charging; 25° C. and 50% RH; listed as Hydrate crystal Production Example 2),−2.30 kv
same,Electrification voltage,[1]; 20 minutes after charging; 25° C. and 50% RH; listed as Hydrate crystal Production Example 2),−1.98 kv
same,Decrease of potential retention rate,"[1]; 25° C. and 50% RH, listed as hydrate crystal of Production Example 2",14%
same,Retention rate,[1]; surface potential after 20 minutes vs initial; 25° C. and 50% RH; listed as Hydrate crystal Production Example 2),86.1%
same,Karl Fischer moisture content,[3]; listed as hydrate crystal of Production Example 2,6.7 wt %
